For series [1], the target named is T1, E. coli-derived β-galactosidase (Escherichia coli, UniProt P00722).
T1 construct: purchased Sigma
Briefly: In vitro enzymatic hydrolysis reaction monitored by HPLC. Type of series: biochemical. Conditions: 10 µM, PBS pH 7.3, 37°C, 6 hours. Here is the method:
The in vitro enzymatic hydrolysis reaction was carried out using E. coli-derived β-galactosidase (Sigma) in PBS solution (0.01 M, pH 7.3) at a reaction concentration of 10 µM for both A13 and A13bG, and for 6 hours at 37°C after the addition of β-galactosidase (10 U/µM). The hydrolysis reaction was monitored by the high performance liquid chromatography (HPLC). The compound A13 and the prodrug A13bG without enzyme reaction were analyzed by HPLC at the same conditions as the references. The chromatographic column model: Waters Acquity BEH C4, the conditions: 0.04 ml/min, (water (0.1% acetic acid)): the acetonitrile gradient elution: 98:2 1 min, 5:95 13 min, 5:95 18 min, 2:98 20 min.

Series [2] deals with mouse model of oxygen-induced retinopathy. Nature of the series: Oxygen-induced retinopathy mouse model. Type of series: in vivo, C57BL6/J mice. Conditions: single intravitreal injection on postnatal day 12, 50 ng and 100 ng, vs vehicle, IB4 staining at P17. The text has this: Neonatal C57BL6/J mice were exposed to a 75% hyperoxia chamber (Shanghai Tow-Int Tech Co., Ltd., Ox-100HE) from the 7th to the 12th day after birth, together with the surrogate ICR female mice, and the mice were removed and placed in a normal air environment for feeding after 12 days. Hypoxia-induced abnormal vasoproliferative lesions persisted in the retina of the neonatal mice after they were fed under a hyperoxic condition and then transferred to a normoxic condition. This mouse lesion model mimics the retinal lesion characteristic of some human vision-related diseases, such as proliferative diabetic retinopathy.
Mice on postnatal day 12 were treated with the intravitreal administration of A13bGa1 or vehicle control in each eye of each mouse. […]
The extracted eyeballs of mice were firstly fixed with 4% paraformaldehyde for 1 hour at room temperature. The retina was carefully detached using the micro ophthalmic scissors and the micro forceps, and then placed in the pre-prepared fluorescence-labelled […] IB4 (Vector, FL-1201) staining solution, and stained overnight at 4 degrees Celsius away from light. Retinal sections were made after the completion of staining, and photographed using a confocal fluorescence microscope (Leica, TCS-SP8). Retinal microvascular stained sections were analyzed for the ischaemic areas and the abnormal neovascular areas using ImageJ (NIH, USA).

Series [3] in a line: Hepatic microsomal metabolic stability. Conditions: mouse. How it is done: […] Samples were taken and analyzed at time points 0, 15, 30, 45 and 60 minutes during the incubation. The reaction was terminated by adding an amount of acetonitrile solution containing the internal standard. […] The residual percentage, half-life, intrinsic clearance, amplified clearance, hepatic clearance and hepatic extraction ratio were determined. The entire experiment was performed in triplicate. All data calculations were performed by Microsoft Excel software. Peak areas were detected by extracting the ionic spectrum. The in vitro half-life (t1/2) of the parent compound was detected by fitting the natural logarithm of the percentage elimination of the parent compound linearly to time.
The in vitro intrinsic clearance (in µL/min/mg protein) was calculated using the following equation: in vitro CLint = kV/N
The amplified clearance (in mL/min/kg) was calculated using the following equation: Amplified CLint = kV/N × the amplification factor [formula]
The hepatic clearance (in mL/min/kg) was calculated using the following equation: The predicted hepatic CLH = (Q×Fu/RB×theamplifiedCLint)/([…]) [formula] • V = the incubation volume per well (0.2 mL); • N = the total amount of protein (mg) • Q = the hepatic blood flow (mL/min/kg) • Fu = the plasma free rate (assumed to be 1) • RB = the whole blood partition coefficient (assumed to be 1)
The hepatic […] was calculated using the following equation: The hepatic extraction ratio(ER) = (thepredictedhepaticCLH)/Q [formula]

Series [4] in a line: Hepatic microsomal metabolic stability.
Series [5] relates to senescent HEF, HELF, BJ, A549, HUVEC and MRC5 cells. Nature of the series: Cell viability test (CCK-8) on induced senescent cell models, A13 vs A13bGa1. Conditions: Figures 3B-3G.
Procedure: Briefly, the human embryonic skin tissues and the fetal lung tissues obtained from the aborted tissues with the patient's informed consent were minced with the forcep and incubated in 1 mg/ml collagenase IV at 37°C for 1-2 hours. After the enzyme treatment, the cells were collected by centrifugation and resuspended in HEF medium (Dulbecco's modified Eagle medium (DMEM, Gibco) containing 10% fetal bovine serum (FBS, Ausbian), 1% GlutaMAX (Gibco), 1% non-essential amino acids (NEAA, Gibco) and 1% penicillin/streptomycin (Gibco). Gibco). Cells were plated on the 10 cm tissue culture dishes and grown in 10% FBS DMEM. […] They were passaged and cryopreserved according to Lonza's method. A549 cells, BJ cells and MRC5 cells were purchased from ATCC and cultured in DMEM medium containing 10% fetal bovine serum (FBS, Ausbian), and 1% penicillin/streptomycin (Gibco).
Cell Counting Kit-8 (CCK-8) assay was used to assess the cell viability. The senescent and non-senescent cells or chondrocytes were seeded into the 96-well plates and cultured overnight. The cells were then treated with control (0.05% DMSO) or different concentrations of the drug to be tested. […] Absorbance was measured at the wavelength of 450 nm.

T1 sequence (P00722 2-1024): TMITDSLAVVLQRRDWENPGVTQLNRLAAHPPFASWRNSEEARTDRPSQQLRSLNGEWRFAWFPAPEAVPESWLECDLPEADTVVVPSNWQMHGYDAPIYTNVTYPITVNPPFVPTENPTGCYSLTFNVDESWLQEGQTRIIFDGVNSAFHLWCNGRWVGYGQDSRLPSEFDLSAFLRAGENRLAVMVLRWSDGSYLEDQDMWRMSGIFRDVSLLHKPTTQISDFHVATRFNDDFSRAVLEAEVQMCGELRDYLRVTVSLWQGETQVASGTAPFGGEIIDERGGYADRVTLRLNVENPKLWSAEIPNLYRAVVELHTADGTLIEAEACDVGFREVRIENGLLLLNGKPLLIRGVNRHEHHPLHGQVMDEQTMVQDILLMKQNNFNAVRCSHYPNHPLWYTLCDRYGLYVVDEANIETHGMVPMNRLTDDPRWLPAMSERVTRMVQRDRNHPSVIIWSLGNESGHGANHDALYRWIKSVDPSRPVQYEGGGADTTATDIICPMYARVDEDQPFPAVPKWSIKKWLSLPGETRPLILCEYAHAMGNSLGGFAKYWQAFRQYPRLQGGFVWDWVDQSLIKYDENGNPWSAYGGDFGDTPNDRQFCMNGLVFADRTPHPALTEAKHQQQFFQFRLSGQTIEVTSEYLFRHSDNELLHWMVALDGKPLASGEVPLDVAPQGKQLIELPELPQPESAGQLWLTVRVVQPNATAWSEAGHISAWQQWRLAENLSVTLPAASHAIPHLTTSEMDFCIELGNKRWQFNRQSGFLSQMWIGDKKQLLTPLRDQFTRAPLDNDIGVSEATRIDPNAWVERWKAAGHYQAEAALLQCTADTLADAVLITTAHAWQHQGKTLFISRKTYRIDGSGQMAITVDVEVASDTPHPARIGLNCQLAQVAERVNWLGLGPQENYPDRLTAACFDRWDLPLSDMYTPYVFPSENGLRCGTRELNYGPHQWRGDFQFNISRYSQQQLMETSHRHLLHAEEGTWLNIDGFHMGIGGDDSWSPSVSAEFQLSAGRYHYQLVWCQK

The CLint scaled is the rate of metabolic loss divided by the concentration. The low end stands for greater metabolic stability, the high end for faster metabolism. One may read the microsomal CLint as the capacity of the preparation to metabolise the compound, expressed as a volume cleared per time. A higher microsomal CLint goes with faster metabolism. In the case of `Cc1c(-c2ccc(N3CCc4cccc(C(=O)Nc5nc6ccccc6s5)c4C3)nc2C(=O)OCc2ccc(O[C@@H]3O[C@H](CO)[C@H](O)[C@H](O)[C@H]3O)c([N+](=O)[O-])c2)cnn1CC12CC3CC(CC(C3)C1)C2` [A13bGa1], in series [1], the “hydrolysis by β-gal enzyme” value is reported as “hydrolysed under the action of β-gal enzyme to release the parent compound A13”. Besides, in series [2], the “area of the abnormal neovascular area” value is “significantly reduced”. Besides, in series [2], the “area of the ischemic lesion area of the retina center” value is on record as “significantly reduced”. The “The hepatic extraction ratio (E)” value is on record as 0.40 in series [3] and 0.70 in series [4] (Canine). Also, the CLint scaled at 1 µM in series [3] (microsomes) worked out at 36.2 mL/min/kg; in series [4] (dog, microsomes), 21.7 mL/min/kg. Moreover, the microsomal CLint at 1 µM amounted to 13.8 µL/min/mg in series [3] (microsomes) and 29.3 µL/min/mg in series [4] (dog, microsomes). Also, the “overall killing activity on the senescent cells compared with parent compound” value in series [5] is “somewhat reduced compared with that of the parent compound A13”. Besides, the “killing of the senescent cells” value in series [5] (skin-derived fibroblasts, lung-derived cells, vascular endothelial-derived cells) is “highly efficient and selective in killing the senescent cells”.

The record behind these values is patent EP4574175A1, “PRODRUG FOR ANTI-AGING RELATED DISEASES AND USE METHOD THEREFOR” (BEIJING SUNCELL BIO-MEDICAL CO., LTD., priority 2022, dated 2024).
